Experimental data taken from the kinase profiling compilation of Christmann-Franck et al. (2016).

Experiments:
Assay in all cases: radiometric filter-binding kinase assay, Kinase HotSpot
Conditions in all cases: compound 0.5 µM; ATP 10 µM
AKT2 (human) = AKT2 (human) (UniProt P31751)
BMX (human) = BMX (human) (UniProt P51813)
CDK5 CDK5R1 p25 (human) = CDK5 CDK5R1 p25 (human) (UniProt Q00535+Q15078)
CDK6 CCND3 (human) = CDK6 CCND3 (human) (UniProt P30281+Q00534)
CHEK1 (human) = CHEK1 (human) (UniProt O14757)
CSNK1G2 (human) = CSNK1G2 (human) (UniProt P78368)
DYRK2 (human) = DYRK2 (human) (UniProt Q92630)
EPHA5 (human) = EPHA5 (human) (UniProt P54756)
EPHA7 (human) = EPHA7 (human) (UniProt Q15375)
EPHB3 (human) = EPHB3 (human) (UniProt P54753)
FYN (human) = FYN (human) (UniProt P06241)
HCK (human) = HCK (human) (UniProt P08631)
HIPK3 (human) = HIPK3 (human) (UniProt Q9H422)
Chain of HIPK3 (human) (Q9H422 whole entry, looked up): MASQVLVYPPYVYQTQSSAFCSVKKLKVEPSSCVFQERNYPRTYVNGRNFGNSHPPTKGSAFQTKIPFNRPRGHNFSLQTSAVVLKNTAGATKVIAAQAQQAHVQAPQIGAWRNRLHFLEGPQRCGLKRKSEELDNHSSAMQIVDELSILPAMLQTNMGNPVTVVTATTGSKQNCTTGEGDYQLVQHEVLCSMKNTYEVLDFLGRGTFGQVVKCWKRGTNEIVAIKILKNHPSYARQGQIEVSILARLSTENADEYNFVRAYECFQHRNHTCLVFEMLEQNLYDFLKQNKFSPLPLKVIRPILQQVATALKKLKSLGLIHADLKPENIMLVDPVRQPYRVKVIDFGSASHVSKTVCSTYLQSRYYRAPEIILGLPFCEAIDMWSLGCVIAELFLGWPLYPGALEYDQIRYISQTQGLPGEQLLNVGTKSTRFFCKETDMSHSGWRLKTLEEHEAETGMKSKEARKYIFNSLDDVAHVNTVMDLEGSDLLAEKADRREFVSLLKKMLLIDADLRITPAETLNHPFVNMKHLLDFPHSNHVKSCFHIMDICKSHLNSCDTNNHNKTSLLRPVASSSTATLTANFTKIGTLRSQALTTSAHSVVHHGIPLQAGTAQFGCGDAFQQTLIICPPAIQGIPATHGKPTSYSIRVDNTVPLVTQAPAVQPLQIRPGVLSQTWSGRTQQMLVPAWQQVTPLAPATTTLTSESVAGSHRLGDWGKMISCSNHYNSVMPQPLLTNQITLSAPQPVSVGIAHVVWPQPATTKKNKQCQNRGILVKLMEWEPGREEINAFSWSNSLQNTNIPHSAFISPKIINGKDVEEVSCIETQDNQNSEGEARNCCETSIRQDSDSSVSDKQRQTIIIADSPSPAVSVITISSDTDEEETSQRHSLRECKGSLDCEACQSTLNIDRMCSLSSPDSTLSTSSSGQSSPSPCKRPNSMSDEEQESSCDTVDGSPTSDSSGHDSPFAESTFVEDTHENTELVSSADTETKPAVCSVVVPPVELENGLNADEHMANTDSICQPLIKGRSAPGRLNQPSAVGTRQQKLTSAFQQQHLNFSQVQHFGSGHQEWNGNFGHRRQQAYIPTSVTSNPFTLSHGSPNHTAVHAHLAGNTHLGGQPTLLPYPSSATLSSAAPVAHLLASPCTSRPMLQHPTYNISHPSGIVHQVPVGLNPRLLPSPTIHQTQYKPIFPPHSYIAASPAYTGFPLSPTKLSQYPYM

MAP3K8 (human) = MAP3K8 (human) (UniProt P41279)
MAP4K4 (human) = MAP4K4 (human) (UniProt O95819)
MAPK3 (human) = MAPK3 (human) (UniProt P27361)
MARK3 (human) = MARK3 (human) (UniProt P27448)
MARK4 (human) = MARK4 (human) (UniProt Q96L34)
MATK (human) = MATK (human) (UniProt P42679)
MELK (human) = MELK (human) (UniProt Q14680)
MET (human) = MET (human) (UniProt P08581)
[1] = tested on: MKNK1 (human), Q9BUB5 [T385D; 165-205 del]
MKNK2 (human) = MKNK2 (human) (UniProt Q9HBH9)
MST4 (human) = MST4 (human) (UniProt Q9P289)
NEK11 (human) = NEK11 (human) (UniProt Q8NG66)
NUAK2 (human) = NUAK2 (human) (UniProt Q9H093)
PBK (human) = PBK (human) (UniProt Q96KB5)
PIM1 (human) = PIM1 (human) (UniProt P11309)
PKN1 (human) = PKN1 (human) (UniProt Q16512)
PNCK (human) = PNCK (human) (UniProt Q6P2M8)
PRKCD (human) = PRKCD (human) (UniProt Q05655)
PRKCH (human) = PRKCH (human) (UniProt P24723)
PRKX (human) = PRKX (human) (UniProt P51817)
ROCK1 (human) = ROCK1 (human) (UniProt Q13464)
Chain of ROCK1 (human) (Q13464 whole entry, looked up): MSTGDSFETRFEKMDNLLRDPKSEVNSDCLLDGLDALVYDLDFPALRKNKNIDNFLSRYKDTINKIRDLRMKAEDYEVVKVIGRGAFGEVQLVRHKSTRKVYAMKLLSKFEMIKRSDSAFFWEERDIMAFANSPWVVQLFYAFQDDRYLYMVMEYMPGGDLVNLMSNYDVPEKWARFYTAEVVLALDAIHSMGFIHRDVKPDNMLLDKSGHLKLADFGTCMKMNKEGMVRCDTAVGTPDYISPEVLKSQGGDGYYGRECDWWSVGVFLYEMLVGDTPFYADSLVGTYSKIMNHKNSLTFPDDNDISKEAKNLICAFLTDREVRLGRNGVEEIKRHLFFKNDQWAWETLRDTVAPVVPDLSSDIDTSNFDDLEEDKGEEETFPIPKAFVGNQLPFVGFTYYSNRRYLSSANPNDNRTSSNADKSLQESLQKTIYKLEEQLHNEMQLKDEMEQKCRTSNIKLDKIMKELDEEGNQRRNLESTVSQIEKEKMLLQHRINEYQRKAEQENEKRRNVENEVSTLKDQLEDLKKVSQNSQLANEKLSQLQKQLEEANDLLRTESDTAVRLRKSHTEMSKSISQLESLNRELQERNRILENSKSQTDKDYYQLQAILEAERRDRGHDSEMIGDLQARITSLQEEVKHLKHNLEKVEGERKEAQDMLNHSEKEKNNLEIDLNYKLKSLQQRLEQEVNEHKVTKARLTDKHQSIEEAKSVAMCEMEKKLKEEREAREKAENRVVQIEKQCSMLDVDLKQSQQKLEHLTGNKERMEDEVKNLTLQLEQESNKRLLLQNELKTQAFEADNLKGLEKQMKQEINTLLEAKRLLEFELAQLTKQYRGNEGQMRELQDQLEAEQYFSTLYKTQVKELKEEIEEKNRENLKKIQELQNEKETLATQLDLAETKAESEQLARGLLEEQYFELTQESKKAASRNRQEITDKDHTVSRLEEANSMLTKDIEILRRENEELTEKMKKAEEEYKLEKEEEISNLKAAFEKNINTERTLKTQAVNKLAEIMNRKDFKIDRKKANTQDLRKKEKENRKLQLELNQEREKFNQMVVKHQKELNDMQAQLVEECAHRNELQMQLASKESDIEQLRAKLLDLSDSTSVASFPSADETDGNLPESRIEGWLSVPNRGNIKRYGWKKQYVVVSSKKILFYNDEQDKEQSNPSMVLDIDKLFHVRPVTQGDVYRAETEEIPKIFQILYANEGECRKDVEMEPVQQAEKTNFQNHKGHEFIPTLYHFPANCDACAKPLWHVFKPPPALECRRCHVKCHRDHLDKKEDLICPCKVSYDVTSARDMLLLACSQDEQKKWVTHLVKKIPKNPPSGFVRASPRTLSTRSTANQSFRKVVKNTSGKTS

RPS6KA1 KD1 KD2 (human) = RPS6KA1 KD1 KD2 (human) (UniProt Q15418)
Chain of RPS6KA1 KD1 KD2 (human) (Q15418 whole entry, looked up): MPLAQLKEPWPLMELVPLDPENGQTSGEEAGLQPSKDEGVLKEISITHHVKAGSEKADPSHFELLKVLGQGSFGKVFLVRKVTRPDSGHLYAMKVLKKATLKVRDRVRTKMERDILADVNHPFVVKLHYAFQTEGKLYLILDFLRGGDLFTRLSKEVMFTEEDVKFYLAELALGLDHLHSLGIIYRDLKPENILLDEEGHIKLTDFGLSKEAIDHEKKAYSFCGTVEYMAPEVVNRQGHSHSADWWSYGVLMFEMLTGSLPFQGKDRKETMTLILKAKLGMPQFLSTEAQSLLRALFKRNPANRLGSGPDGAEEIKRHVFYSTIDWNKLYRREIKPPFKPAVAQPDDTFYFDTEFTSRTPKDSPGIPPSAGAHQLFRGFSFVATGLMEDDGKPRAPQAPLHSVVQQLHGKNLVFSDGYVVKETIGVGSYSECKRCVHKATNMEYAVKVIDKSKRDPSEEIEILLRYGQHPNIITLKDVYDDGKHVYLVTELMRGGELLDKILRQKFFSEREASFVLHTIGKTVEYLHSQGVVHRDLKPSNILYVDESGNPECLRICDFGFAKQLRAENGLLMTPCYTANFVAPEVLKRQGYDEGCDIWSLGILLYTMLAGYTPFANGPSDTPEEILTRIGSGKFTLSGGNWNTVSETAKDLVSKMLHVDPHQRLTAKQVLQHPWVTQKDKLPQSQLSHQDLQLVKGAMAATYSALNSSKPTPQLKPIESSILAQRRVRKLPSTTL

RPS6KA2 KD1 KD2 (human) = RPS6KA2 KD1 KD2 (human) (UniProt Q15349)
STK10 (human) = STK10 (human) (UniProt O94804)
STK11 (human) = STK11 (human) (UniProt Q15831)
Chain of STK11 (human) (Q15831 whole entry, looked up): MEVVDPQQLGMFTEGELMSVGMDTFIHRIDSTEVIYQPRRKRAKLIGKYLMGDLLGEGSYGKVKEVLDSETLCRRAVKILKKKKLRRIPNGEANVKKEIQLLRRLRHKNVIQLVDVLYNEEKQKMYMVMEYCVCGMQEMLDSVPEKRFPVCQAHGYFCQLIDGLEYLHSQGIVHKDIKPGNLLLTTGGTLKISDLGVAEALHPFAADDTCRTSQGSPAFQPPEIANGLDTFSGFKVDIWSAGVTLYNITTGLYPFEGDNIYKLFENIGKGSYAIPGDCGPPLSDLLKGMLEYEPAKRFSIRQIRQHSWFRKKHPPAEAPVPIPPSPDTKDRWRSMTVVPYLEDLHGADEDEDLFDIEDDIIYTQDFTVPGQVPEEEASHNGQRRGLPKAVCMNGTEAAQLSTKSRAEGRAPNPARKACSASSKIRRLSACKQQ

STK17A (human) = STK17A (human) (UniProt Q9UEE5)
TSSK2 (human) = TSSK2 (human) (UniProt Q96PF2)
[2] = target: TYK2 JH1 catalytic (human) (UniProt P29597)
VRK1 (human) = VRK1 (human) (UniProt Q99986)
Chain of VRK1 (human) (Q99986 whole entry, looked up): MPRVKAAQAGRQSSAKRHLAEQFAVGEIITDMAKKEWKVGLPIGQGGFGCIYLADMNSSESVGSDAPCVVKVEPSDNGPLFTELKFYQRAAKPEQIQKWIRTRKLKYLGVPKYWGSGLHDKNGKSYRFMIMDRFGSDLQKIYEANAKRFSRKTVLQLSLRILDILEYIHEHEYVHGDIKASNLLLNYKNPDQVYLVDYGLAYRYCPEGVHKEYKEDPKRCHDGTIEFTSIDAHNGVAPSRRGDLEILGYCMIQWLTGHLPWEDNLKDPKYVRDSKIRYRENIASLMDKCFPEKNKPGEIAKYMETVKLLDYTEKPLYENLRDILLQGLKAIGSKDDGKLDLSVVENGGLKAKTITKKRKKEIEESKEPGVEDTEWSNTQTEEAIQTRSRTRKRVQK

Chain of BMX (human) (P51813 whole entry, looked up): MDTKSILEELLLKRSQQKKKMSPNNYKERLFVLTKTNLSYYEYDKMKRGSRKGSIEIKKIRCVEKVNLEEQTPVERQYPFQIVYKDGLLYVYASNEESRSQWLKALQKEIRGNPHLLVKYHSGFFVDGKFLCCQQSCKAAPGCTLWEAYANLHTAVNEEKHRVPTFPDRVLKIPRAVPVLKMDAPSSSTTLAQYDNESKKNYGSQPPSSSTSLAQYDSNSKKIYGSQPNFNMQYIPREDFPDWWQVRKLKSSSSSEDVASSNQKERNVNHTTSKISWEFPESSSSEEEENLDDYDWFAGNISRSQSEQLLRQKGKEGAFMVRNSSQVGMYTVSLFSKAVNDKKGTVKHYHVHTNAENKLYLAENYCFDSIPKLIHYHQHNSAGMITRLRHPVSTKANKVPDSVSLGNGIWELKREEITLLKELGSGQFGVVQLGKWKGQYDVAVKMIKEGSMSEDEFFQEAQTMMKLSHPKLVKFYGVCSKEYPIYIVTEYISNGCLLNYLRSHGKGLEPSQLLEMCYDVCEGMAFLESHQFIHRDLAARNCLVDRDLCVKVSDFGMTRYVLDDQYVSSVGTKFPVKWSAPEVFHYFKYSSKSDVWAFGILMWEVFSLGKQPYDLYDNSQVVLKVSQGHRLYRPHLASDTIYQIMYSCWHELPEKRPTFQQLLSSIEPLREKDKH

`Ic1cccc(CSc2nnc(-c3ccncc3)o2)c1` was tested, and the residual activity (AKT2 (human)) was 101%, the residual activity (BMX (human)) was 86.6% and the residual activity (CDK5 CDK5R1 p25 (human)) was 90.5%. The residual activity (CDK6 CCND3 (human)) was 102%, the residual activity (CHEK1 (human)) was 96.3% and the residual activity (CSNK1G2 (human)) was 99.2%. For the same compound, the residual activity (DYRK2 (human)) was 96.8%, the residual activity (EPHA5 (human)) was 100% and the residual activity (EPHA7 (human)) was 100%. It also gave a residual activity (EPHB3 (human)) of 99.7%, a residual activity (FYN (human)) of 102% and a residual activity (HCK (human)) of 104%. It also gave a residual activity (HIPK3 (human)) of 99.1%, a residual activity (MAP3K8 (human)) of 96.1% and a residual activity (MAP4K4 (human)) of 97.4%. The residual activity (MAPK3 (human)) was 95.8%, the residual activity (MARK3 (human)) was 124% and the residual activity (MARK4 (human)) was 86.8%. It also gave a residual activity (MATK (human)) of 94.3%, a residual activity (MELK (human)) of 97.7% and a residual activity (MET (human)) of 88.7%. The residual activity [1] was 109%, the residual activity (MKNK2 (human)) was 91.5% and the residual activity (MST4 (human)) was 103%. For the same compound, the residual activity (NEK11 (human)) was 113%, the residual activity (NUAK2 (human)) was 98.9% and the residual activity (PBK (human)) was 62.7%. The residual activity (PIM1 (human)) was 102%, the residual activity (PKN1 (human)) was 98.6% and the residual activity (PNCK (human)) was 101%. The residual activity (PRKCD (human)) was 83.7%, the residual activity (PRKCH (human)) was 99.1% and the residual activity (PRKX (human)) was 78.2%. For the same compound, the residual activity (ROCK1 (human)) was 88%, the residual activity (RPS6KA1 KD1 KD2 (human)) was 98.6% and the residual activity (RPS6KA2 KD1 KD2 (human)) was 101%. The residual activity (STK10 (human)) was 93.8%, the residual activity (STK11 (human)) was 103% and the residual activity (STK17A (human)) was 95.8%. For the same compound, the residual activity (TSSK2 (human)) was 110%, the residual activity [2] was 105% and the residual activity (VRK1 (human)) was 93.1%.

Compound `O=C1NC(=O)c2c1c1c3ccccc3[nH]c1n1cncc21` has a residual activity (AKT2 (human)) of 121%, a residual activity (BMX (human)) of 91.7% and a residual activity (CDK5 CDK5R1 p25 (human)) of 89.4%. It also gave a residual activity (CDK6 CCND3 (human)) of 74.3%, a residual activity (CHEK1 (human)) of 24.6% and a residual activity (CSNK1G2 (human)) of 63.4%. For the same compound, the residual activity (DYRK2 (human)) was 64.1%, the residual activity (EPHA5 (human)) was 92% and the residual activity (EPHA7 (human)) was 78.8%. The residual activity (EPHB3 (human)) was 79.7%, the residual activity (FYN (human)) was 97.7% and the residual activity (HCK (human)) was 94.6%. The residual activity (HIPK3 (human)) was 66.9%, the residual activity (MAP3K8 (human)) was 100% and the residual activity (MAP4K4 (human)) was 21.2%. The residual activity (MAPK3 (human)) was 87.8%, the residual activity (MARK3 (human)) was 29.8% and the residual activity (MARK4 (human)) was 26.8%. For the same compound, the residual activity (MATK (human)) was 99.8%, the residual activity (MELK (human)) was 32.6% and the residual activity (MET (human)) was 93.4%. For the same compound, the residual activity [1] was 56.3%, the residual activity (MKNK2 (human)) was 35% and the residual activity (MST4 (human)) was 69.4%. For the same compound, the residual activity (NEK11 (human)) was 99%, the residual activity (NUAK2 (human)) was 80.1% and the residual activity (PBK (human)) was 72.4%. For the same compound, the residual activity (PIM1 (human)) was 1.43%, the residual activity (PKN1 (human)) was 76.4% and the residual activity (PNCK (human)) was 105%. For the same compound, the residual activity (PRKCD (human)) was 65%, the residual activity (PRKCH (human)) was 74.8% and the residual activity (PRKX (human)) was 87.8%. The residual activity (ROCK1 (human)) was 95.9%, the residual activity (RPS6KA1 KD1 KD2 (human)) was 31.1% and the residual activity (RPS6KA2 KD1 KD2 (human)) was 32.7%. The residual activity (STK10 (human)) was 69%, the residual activity (STK11 (human)) was 45.2% and the residual activity (STK17A (human)) was 36.6%. It also gave a residual activity (TSSK2 (human)) of 99.1%, a residual activity [2] of 85.4% and a residual activity (VRK1 (human)) of 78.1%.

For `O=C1c2ccccc2-c2nc3nnnn3nc21`, the residual activity (AKT2 (human)) was 55.8%, the residual activity (BMX (human)) was 79% and the residual activity (CDK5 CDK5R1 p25 (human)) was 46.4%. For the same compound, the residual activity (CDK6 CCND3 (human)) was 9.93%, the residual activity (CHEK1 (human)) was 112% and the residual activity (CSNK1G2 (human)) was 82.2%. The residual activity (DYRK2 (human)) was 113%, the residual activity (EPHA5 (human)) was 81.5% and the residual activity (EPHA7 (human)) was 81.9%. For the same compound, the residual activity (EPHB3 (human)) was 90.2%, the residual activity (FYN (human)) was 76.2% and the residual activity (HCK (human)) was 84%. The residual activity (HIPK3 (human)) was 101%, the residual activity (MAP3K8 (human)) was 75.9% and the residual activity (MAP4K4 (human)) was 89%. The residual activity (MAPK3 (human)) was 87%, the residual activity (MARK3 (human)) was 78.1% and the residual activity (MARK4 (human)) was 88.1%. For the same compound, the residual activity (MATK (human)) was 99.7%, the residual activity (MELK (human)) was 55.7% and the residual activity (MET (human)) was 83.3%. For the same compound, the residual activity [1] was 79.3%, the residual activity (MKNK2 (human)) was 78.3% and the residual activity (MST4 (human)) was 91.8%. For the same compound, the residual activity (NEK11 (human)) was 88%, the residual activity (NUAK2 (human)) was 92.5% and the residual activity (PBK (human)) was 64.5%. It also gave a residual activity (PIM1 (human)) of 94.1%, a residual activity (PKN1 (human)) of 97.5% and a residual activity (PNCK (human)) of 83.4%. It also gave a residual activity (PRKCD (human)) of 102%, a residual activity (PRKCH (human)) of 49.2% and a residual activity (PRKX (human)) of 94.3%. For the same compound, the residual activity (ROCK1 (human)) was 94.5%, the residual activity (RPS6KA1 KD1 KD2 (human)) was 53.1% and the residual activity (RPS6KA2 KD1 KD2 (human)) was 89.1%. It also gave a residual activity (STK10 (human)) of 84.3%, a residual activity (STK11 (human)) of 99.1% and a residual activity (STK17A (human)) of 83.8%. The residual activity (TSSK2 (human)) was 75%, the residual activity [2] was 77.2% and the residual activity (VRK1 (human)) was 90.5%.
